Measurements reported in US9115363B2, “Gene expression and eradication system in Helicobacter pylori” (priority 2011, dated 2015).
Values joined by “and” are separate entries in the source; they are usually repeats but may differ in a detail not shown here. Equal entries are not always repeated.

Experiments:
[1] = tested on: TetR-controlled GFP expression (uPtetO-GFP); test: GFP reporter assay, liquid culture (BHI), induction by ATc; format: cell-based, H. pylori; details: for induction of GFP expression: 100 ng/mL ATc, BHI media
Method: 5 mL cultures were grown for 14 h and then induced with 200 ng/mL ATc unless otherwise stated. Bacteria were harvested by centrifugation, washed twice with PBS and resuspended to a density of 20D600. Then, 0.1 ml of the bacterial suspension was transferred into black 96-well plates, and fluorescence at 520 nm after excitation at 485 nm was measured in using the POLARstar Omega platereader.

[2] = tested on: GFP expression in strains expressing TetR or revTetR; test: GFP fluorescence on blood agar plates with ATc; format: cell-based, H. pylori; details: 50 ng/mL ATc in blood agar plates
Method: Bacteria were plated onto fresh CBA plates with or without 50 ng/mL ATc and visualized after 24 hr incubation. For Tet-OFF strains, ptetR(2,4,6) bacteria were passaged twice on CBA plates containing ATc prior to the experiments, to allow strains enough time to repress GFP expression.

ptetR2 and uPtetO1-GFP = test: GFP disc diffusion assay; format: cell-based, H. pylori; details: bacterial lawns containing ptetR2 and uPtetO1-GFP; after 24 hours of incubation
[3] = tested on: TetR-controlled GFP expression; test: Kinetics of uPtetO1-GFP induction by immunoblotting; format: cell-based, H. pylori
Method: (§1) Immunoassays—SDS-PAGE and Western Blot Analysis
Whole cell lysates of bacteria growing on either chloramphenicol or streptomycin plates was resuspended in phosphate-buffered saline (PBS) buffer. Cells were pelleted and resuspended in lysis buffer (50 mM Tris-HCl, 250 mM NaCl, 1% triton X-100) and incubated on ice for 15 min. Samples were then sonicated for 10 sec. Insoluble cell debris was removed by centrifugation at 13,000 rpm form 10 min at 4° C. Cell lysates were mixed with sodium dodecyl sulfate (SDS) sample buffer and incubated at 95° C. for 10 min. The proteins were separated by 10% SDS-polyacrylamide gel electrophoresis (PAGE) and electrotransferred to a pvdf (0.22 μm Immobulon, Millipore) membrane at 4° C. with a constant voltage of 90 V in transfer buffer (192 mM glycine, 25 mM Tris, 20% [vol/vol] methanol) for 2 hours. The membrane was blocked by using 2% BSA (Sigma) in PBST (150 mM NaCl, 10 mM Tris-C1, pH 7.0, 0.1% [vol/vol] Tween 20) and then incubated with the appropriate primary antibody, washed and then incubated with a secondary antibody containing a horseradish peroxidise (HRP) conjugate. The membrane was washed again and detection of secondary HRP conjugate was accomplished by chemiluminescence (Sigma). […] Chemiluminescence was detected using LAS 3000 (Fujifilm)(software Image reader LAS 3000 V2.2)

H. pylori = test: Minimal inhibitory concentration of ATc in liquid culture; format: cell-based; details: MIC as measured in liquid culture; maximal induction at 100 ng/mL
[4] = tested on: urePtetO promoters (UreB subunit); test: Immunoblotting of UreB in urePtetO strains; format: cell-based, H. pylori
Method: as §1
Whole cell lysates of bacteria growing on either chloramphenicol or streptomycin plates was resuspended in phosphate-buffered saline (PBS) buffer. Cells were pelleted and resuspended in lysis buffer (50 mM Tris-HCl, 250 mM NaCl, 1% triton X-100) and incubated on ice for 15 min. Samples were then sonicated for 10 sec. Insoluble cell debris was removed by centrifugation at 13,000 rpm form 10 min at 4° C. Cell lysates were mixed with sodium dodecyl sulfate (SDS) sample buffer and incubated at 95° C. for 10 min. The proteins were separated by 10% SDS-polyacrylamide gel electrophoresis (PAGE) and electrotransferred to a pvdf (0.22 μm Immobulon, Millipore) membrane at 4° C. with a constant voltage of 90 V in transfer buffer (192 mM glycine, 25 mM Tris, 20% [vol/vol] methanol) for 2 hours. The membrane was blocked by using 2% BSA (Sigma) in PBST (150 mM NaCl, 10 mM Tris-C1, pH 7.0, 0.1% [vol/vol] Tween 20) and then incubated with the appropriate primary antibody, washed and then incubated with a secondary antibody containing a horseradish peroxidise (HRP) conjugate. The membrane was washed again and detection of secondary HRP conjugate was accomplished by chemiluminescence (Sigma). For detection of TetR and revTetR, rabbit polyclonal IgG anti TetR (MoBiTec) at a dilution of 1:2000 was used as the primary. For detection of UreB subunit, mouse monoclonal IgG anti UreB (Austral Biologicals) was used at a dilution of 1:8000. For detection of GFP, rabbit polyclonal anti GFP (Ondek) was used at a dilution of 1:2000. Secondary antibodies, mouse anti-rabbit-HRP and rabbit anti-mouse-HRP (Jackson ImmunoResearch Laboratories) were used at a dilution of 1:10,000. Chemiluminescence was detected using LAS 3000 (Fujifilm)(software Image reader LAS 3000 V2.2)

[5] = tested on: urease activity of X47 urePtetO strains; test: Liquid urease activity assay; format: cell-based, H. pylori
Method: Bacteria were grown on CBA plates with or without 50 ng/mL ATc for two successive passages. Bacteria were resuspended in cold buffer A (25 mM phosphate buffer, pH 6.8) and standardized to an OD600 of 4.0. 50 μL of standardized bacterial suspension was diluted with 50 μL of buffer B (25 mM phosphate buffer, pH 6.8, 0.2% tween-20). In 96 well plate, 25 μL of diluted bacterial suspension was diluted with 150 μL of buffer C (25 mM phosphate buffer, pH 6.8, 250 μM phenol red) and incubated for 5 min at 37° C. 75 μL of urea solution (0.5 M) was then added and the absorbance at 560 nm was measured every 72 seconds for 75 cycles using a POLARstar Omega (BGM Labtech) platereader. Activity was measured as the rate of change in absorbance over time and expressed as percent of urease activity of the wild-type parent strain. All urease activity measurements were carried out in triplicate and experiments were repeated three times.

[6] = tested on: urePtetO induction of Tet-ON strains; test: Urease plate assay; format: cell-based, H. pylori; details: for ATc concentration at which significant urease activity is detected: after 24 h
urease activity = test: Urease disc diffusion assay; format: cell-based, H. pylori; details: plate inoculated with untreated bacteria
Method: Bacteria were plated onto urease plates, and blank discs were placed onto the inoculated plate. 10 μL of ATc was placed onto each disc and plates were incubated under microaerophilic conditions and examined for colour change every […].

[7] = tested on: uPtetO-cre in X47 mdaB:: ptetR2; test: Immunoblotting of conditional cre expression; format: cell-based, H. pylori; details: 50 ng/ml ATc, liquid culture, trpA:: uPtetO-cre, both strains
Source text: In order to conditionally express the Cre recombinase in H. pylori two Tet responsive promoters uPtetO1 and uPtetO2 were selected to control the cre expression. They consist of the core urease promoter containing a C to T mutation in the −10 box and one tetO site just downstream of the transcriptional start point. uPtetO2 contains a second tetO site between the −35 and −10 box. A synthetic H. pylori codon usage optimized version of the cre gene was amplified and cloned into the plasmid pTrpA-uPtetO1-GFP and pTrpA-uPtetO2-GFP to replace GFP. Natural transformation of the recipient strain H. pylori X47 mdaB:: ptetR2; trpA:: rpsL-CAT with these plasmids (pTrpA-uPtetO(1/2)-Cre) allowed integration of uPtetO-cre fusions in the chromosome at the trpA locus by homologous recombination. The conditional expression of cre in the constructed strains X47 mdaB:: ptetR2; trpA:: uPtetO-cre was analyzed by immunoblotting. Bacteria were grown in liquid culture the presence of none or 50 ng/ml ATc, respectively.
Immunoassay—SDS-PAGE and Western Blot Analysis.
Bacteria were grown for 24 hours on selective plates or in selective liquid media. Cells were harvested and resuspended in phosphate-buffered saline (PBS) buffer. […] Chemiluminescence was detected using LAS 3000 (Fujifilm)(software Image reader LAS 3000 V2.2)

[8] = tested on: B128 pHel2-IEC-Ts-FliCsyn transconjugants; test: Immunoblotting of conditional fliCsyn expression; format: cell-based, H. pylori; details: selective blood agar plates with 50 ng/ml ATc; all tested clones
Method: The conditional expression of fliCsyn and expression of TetRs in the transconjugants B128 pHel2-IEC-Ts-FliCsyn was analyzed by immunobloting.
Bacteria were grown for 24 hours on selective plates or in selective liquid media. Cells were harvested and resuspended in phosphate-buffered saline (PBS) buffer. Samples were then sonicated for 10 seconds, mixed with sodium dodecyl sulfate (SDS) sample buffer and incubated at 37° C. for 15 min. Insoluble cell debris was removed by centrifugation at 13,000 rpm for 1 min. The proteins were separated by 10% SDS-polyacrylamide gel electrophoresis (PAGE) and electro-transferred to a PVDF membrane (Immobilon-P Transfer (0.45 μm, Millipore) with a constant voltage of 100 V in transfer buffer (192 mM glycine, 25 mM Tris, 20% [vol/vol] methanol) for 1 hour. The membranes were blocked with 3% BSA (Sigma) in PBST (150 mM NaCl, 10 mM Tris-C1, pH 7.0, 0.1% [vol/vol] Tween 20) and then incubated with the appropriate primary antibody, washed and then incubated with a secondary antibody containing a horseradish peroxidise (HRP) conjugate. The membrane was washed again and detection of secondary HRP conjugate was accomplished by chemiluminescence (Sigma). For detection of Cre recombinase, rabbit polyclonal IgG anti Cre (abcam) was used at a dilution of 1:1000. […] Chemiluminescence was detected using LAS 3000 (Fujifilm)(software Image reader LAS 3000 V2.2)

TetR = TetR (Escherichia coli, UniProt P0ACT4, D23E/I36V/T20V); details: cited from earlier work
Chain of TetR (P0ACT4 with tags, fused parts or gaps T20V/D23E/I36V): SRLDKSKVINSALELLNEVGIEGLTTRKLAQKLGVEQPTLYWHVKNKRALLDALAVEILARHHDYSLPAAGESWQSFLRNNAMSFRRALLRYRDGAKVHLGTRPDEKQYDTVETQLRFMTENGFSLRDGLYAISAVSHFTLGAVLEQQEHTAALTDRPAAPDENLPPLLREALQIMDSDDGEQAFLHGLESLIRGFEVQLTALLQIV

revTetR = revTetR (Escherichia coli, UniProt P0ACT4); details: cited from earlier work
Chain of revTetR (P0ACT4 with tags, fused parts or gaps E15A/L17G/T20V/D23E/L25V/I36V): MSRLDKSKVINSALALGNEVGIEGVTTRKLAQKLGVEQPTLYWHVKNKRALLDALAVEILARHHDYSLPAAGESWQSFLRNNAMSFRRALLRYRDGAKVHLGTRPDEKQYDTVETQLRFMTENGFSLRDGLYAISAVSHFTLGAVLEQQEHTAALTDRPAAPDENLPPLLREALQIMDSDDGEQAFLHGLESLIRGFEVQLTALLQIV

[9] = tested on: Tet-ON mdaB::ptetR; urePtetO strains; test: In vivo induction of urePtetO by doxycycline, C57BL/6J infection model; parameters: species or system H. pylori; details: for dox concentration at which the strain could be re-isolated: one week of infection, C57BL/6J mice
Method: Regulation of urePtetO to drive the expression of urease by dox was evaluated using a C57BL/6J infection model. Mice were orally challenged with one of several Tet-ON, mdaB::ptetR; urePtetO strains and supplemented with a range of dox concentrations that were within the tolerance of X47. Urease is known to be an essential gene required for colonization, and therefore Tet-ON urePtetO strains should not be able to colonize in the absence of the inducer. […] Infection of urePtetO strains is dependent on dox supplementation (FIG. 9F). Mice were supplemented with dox for two weeks after infection to establish successful colonization of mdaB:: ptetR4; urePtetOI. […] Infection by strain mdaB::ptetR4; urePtetOI could be maintained for at least 4 weeks with dox supplementation.
6-7 week old C57BL/6J female mice were orally gavaged once with 200 μL of 1×10^9 CFU/mL bacteria, that had been passaged on CBA plates containing 50 ng/mL ATc to induce expression of tetracycline responsive genes. Mice were supplemented with doxycycline in their drinking water containing 5% sucrose. Mice were sacrificed at indicated time points and stomachs were removed and homogenized in 1 mL BHI using a tissue lysing agent (Retch). Homogenates were serially diluted and plated out on H. pylori selective plates, (CBA containing 5% Horse blood, Dent, polymyxin B 2500 U/L or 0.2975 mg/L, nalidixic acid 10 mg/L and Bacitracin 100 mg/L). Colonies were counted to calculate bacteria load. Re-isolated clones were checked for tet responsive gene expression and sequenced when appropriate.

Cc1c2c(c(O)c3c(O)cccc13)C(=O)[C@]1(O)C(=O)C(C(N)=O)=C(O)[C@@H](N(C)C)[C@@H]1C2 [ATc, Anhydrotetracycline]
induction of GFP expression ([1]; ptetR2 uPtetO1, all three recipient loci): 4-9 fold | induction of GFP expression ([1]; ptetR4 uPtetO1, all three recipient loci): 13-80 fold | induction of GFP expression ([1]; ptetR6 uPtetO1, all three recipient loci): 2-5 fold | induction of GFP expression ([1]; uPtetO2 strains, ptetR2): 1.5-3 fold | induction of GFP expression ([1]; uPtetO2 strains, ptetR4): 3-8 fold | induction of GFP expression ([1]; uPtetO2 strains, ptetR6): 3-8 fold | ATc concentration giving maximal GFP activities ([1]; bacteria grown in different concentrations of ATc): 100 ng/mL | GFP activities compared with maximal induction ([1]; induction with 25 ng/ml ATc): 2.4 fold lower | GFP expression (observed fluorescence intensities) ([2]; strains expressing TetR): induction | GFP expression (observed fluorescence intensities) ([2]; strains expressing revTetR): repression | GFP expression around ATc discs (ptetR2 and uPtetO1-GFP): halo of GFP expression is evident around each disc | time of maximal GFP activities after the addition of ATc ([3]; ptetR2 and ptetR4 containing bacteria): 16 h | kinetics of GFP induction ([3]; ptetR6 containing bacteria): strong but delayed induction | ATc concentration of maximal induction relative to the minimal inhibitory concentration (MIC) (H. pylori): 10 fold below | repression of UreB expression ([4]; constructs I, II and V of the Tet-OFF system): Incomplete repression | response of urePtetO to ATc ([4]; strains harbouring ptetR3): did not display response | abundance of the UreB subunit upon the addition of ATc ([4]; strains harbouring the revTetR repressor (Tet-OFF system)): reduced below the detection limit | urease activity on addition of ATc ([5]; strains ptetR2, urePtetOI and V, ptetR3, urePtetOIV and ptetR6, urePtetOV): only partially restored | urease activity on addition of ATc ([5]; strains ptetR2, urePtetOII, ptetR3, urePtetOI, II and III): completely restored urease activity | urease activity on addition of ATc ([5]; the other Tet-ON strains): below 10 % of wild-type urease activity | ATc concentration sufficient to induce all five urePtetO promoters ([6]; ptetR4 strains): 1 ng/mL | ATc concentrations at which urease activity decreases ([6]; ptetR4 strains): above 25 ng/mL | ATc concentrations at which urease activity decreases ([6]; ptetR6 strains): above 50 ng/mL | ATc concentration at which urease activity is evident ([6]; ptetR6 strains, urePtetOIII, only after 48 hr): 25 ng/mL and 50 ng/mL | ATc concentration at which significant urease activity is detected ([6]; ptetR6 strains, urePtetOIV): 10 ng/mL | ATc concentration at which significant urease activity is detected ([6]; ptetR6 strains, urePtetOV): 5 ng/mL | urease activity by diffusion of ATc from disc (urease activity): induced | cre expression [7]: induced | expression of FliCsyn [8]: showed expression of FliCsyn | binding affinity for TetR (TetR): very high binding affinity | binding affinity for revTetR (revTetR): very high binding affinity

C[C@H]1c2cccc(O)c2C(=O)C2=C(O)[C@]3(O)C(=O)C(C(N)=O)=C(O)[C@@H](N(C)C)[C@@H]3[C@@H](O)[C@@H]21 [dox, doxycycline]
time infection could be maintained with dox supplementation ([9]; strain mdaB::ptetR4, urePtetOI): at least 4 weeks | dox concentration at which the strain could be re-isolated ([9]; strain mdaB::ptetR4, urePtetOI): 0.1 to 5 µg/mL | dox concentration at which the strain could be re-isolated ([9]; strain mdaB::ptetR6, urePtetOV): 5 to 20 µg/mL
